Experimental data taken from patent publication US11197891B2, “Therapies with lanthionine C-like protein 2 ligands and cells prepared therewith” (Landos Biopharma, Inc., priority 2017, dated 2021).
Where two headings read alike, the source gives them in different places. Each block holds one compound with its values, some of them ahead of it.

Tests used:
[1] = system: CD4+ T cells; assay: Differentiation of CD4+ T cells into Tregs with metabolic modulators; format: cell-based, mice; details: BT-11 with PS-48 (5 μM), DASA-58 (10 μM) or thapsigargin (10 nM)
Protocol: (§1) Spleens from WT and Lancl2−/− mice were excised and crushed to generate a single cell suspension. CD4+ T cell fraction was enriched by negative selection via magnetic sorting with the BD IMag system. Naïve CD4+ T cells were obtained by incubation with a biotinylated CD62L antibody followed by conjugation to streptavidin coated magnetic beads. Naïve cells were incubated for 48 hours within anti-CD3 coated tissue culture plates in complete IMDM media containing all-trans retinoic acid and purified TGF-β to stimulate differentiation into Tregs. […] Metabolic modulators, PS-48 (5 μM), DASA-58 (10 μM), and thapsigargin (10 nM), were added at 0 h. […] Six hours prior to assay, cells were stimulated with PMA and ionomycin. Cells were collected from plate for downstream analysis by flow cytometry, gene expression and metabolic assay.

[2] = system: PBMCs from Crohn's disease donors; assay: PBMCs isolated from Crohn's disease donors, 24 hour culture; format: cell-based, human; details: presence of thapsigargin
Protocol: Fresh de-identified whole blood was obtained from commercial vendor. Blood was diluted and purified for PBMC fraction by LeukoSep tube. Remaining red blood cells were lysed by hypotonic lysis. […] For siRNA experiments, cells were first incubated with an OriGene 3-mer LANCL2 siRNA or scrambled control suspended within ViromerGreen transfection reagent for 6 hours. […] Cells were stimulated with PMA and ionomycin six hours prior to assay.
Whole blood was obtained from Crohn's disease patients, clinically categorized as mild to moderate disease.

[3] = biological target: T1, LANCL2 (Homo sapiens, UniProt Q9NS86); assay: Surface plasmon resonance (SPR) binding to LANCL2; details: Tables 1A and 1B; read-out: SPR Affinity to LANCL2 (Kd)
T1 sequence (Q9NS86 1-450): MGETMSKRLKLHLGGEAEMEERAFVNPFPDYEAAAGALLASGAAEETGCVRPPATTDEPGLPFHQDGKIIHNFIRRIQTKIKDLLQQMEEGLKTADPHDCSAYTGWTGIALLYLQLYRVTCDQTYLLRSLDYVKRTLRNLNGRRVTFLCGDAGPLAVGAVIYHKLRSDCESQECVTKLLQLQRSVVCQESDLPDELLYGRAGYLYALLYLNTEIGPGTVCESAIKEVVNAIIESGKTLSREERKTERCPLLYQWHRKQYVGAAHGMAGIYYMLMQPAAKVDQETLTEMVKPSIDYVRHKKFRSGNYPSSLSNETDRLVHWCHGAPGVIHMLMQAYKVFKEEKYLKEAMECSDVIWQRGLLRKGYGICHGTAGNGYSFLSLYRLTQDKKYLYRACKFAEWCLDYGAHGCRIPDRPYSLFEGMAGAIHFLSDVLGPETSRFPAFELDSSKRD

[4] = biological target: T1, LANCL2; details: rows marked REF 18; read-out: SPR Affinity to LANCL2 (Kd); cited from earlier work
[5] = system: C. difficile; assay: C. difficile culture in chopped meat media (anti-microbial properties); details: 10 ug/mL
[6] = system: WT Tregs; assay: Metabolic analysis (pyruvate kinase, pyruvate dehydrogenase, PEP) in in vitro Tregs; format: cell-based, mice; details: PS-48 (5 μM)
Protocol: (§2) Colons and cells were suspended within assay specific buffer and homogenized for 10 seconds. Homogenate was centrifuged for 10 minutes at 10,000×g. For enzyme activity assays, supernatant was collected and plated. Samples were mixed with enzyme developer and substrate. Colorimetric detection of NADH production was measured using a BioTek μQuant plate reader in combination with Gen5 software. For PEP assay, supernatant was deproteinized using perchloric acid mediated purification. Samples were plated and mixed with a probe, converter, developer mix. PEP concentration was measured by absorbance quantification on plate reader.
as §1, with “Cells were collected from plate for downstream analysis by flow cytometry, gene expression and metabolic assay.” left out

[7] = system: Mdr1a−/− mice; assay: Mdr1a−/− mice with PS-48 injections (in vivo validation of immunometabolic effect); details: weekly intraperitoneal injections of PS-48
Protocol: as §2
To validate the in vitro immunometabolic findings, Mdr1a−/− mice were given weekly intraperitoneal injections of PS-48 or vehicle control. […] Similar patterns were observed within the DSS model.

SMILES: C/C=C(/C)C(=O)O[C@H]1C(C)=C2[C@H]([C@@H]1OC(=O)CCCCCCC)[C@@](C)(OC(C)=O)C[C@H](OC(=O)CCC)[C@@]1(O)[C@H]2OC(=O)[C@@]1(C)O [thapsigargin, reference compound]
Treg cell differentiation [1]: diminishes the BT-11 induced increase in Treg cell differentiation
induction of FOXP3+ cells in PBMCs treated with BT-11 [2]: prevented the increased induction of FOXP3+ cells

SMILES: CC1=CC(=O)CC(C)(C)[C@]1(O)/C=C/C(C)=C\C(=O)O [ABA, abscisic acid]
Kd [4]: 2.3 µM

SMILES: O=C(Nc1ccc(NC(=O)c2cccc(-c3nc4ccccc4[nH]3)c2)cc1)c1cccc(-c2nc3ccccc3[nH]2)c1 [BT-6]
Kd [3]: 18.2 µM

SMILES: CN[C@H](CC(C)C)C(=O)N[C@H]1C(=O)N[C@@H](CC(N)=O)C(=O)N[C@H]2C(=O)N[C@H]3C(=O)N[C@H](C(=O)N[C@H](C(=O)O)c4cc(O)cc(O)c4-c4cc3ccc4O)[C@H](O)c3ccc(c(Cl)c3)Oc3cc2cc(c3O[C@@H]2O[C@H](CO)[C@@H](O)[C@H](O)[C@H]2O[C@H]2C[C@](C)(N)[C@H](O)[C@H](C)O2)Oc2ccc(cc2Cl)[C@H]1O [vancomycin, reference compound]
reduction of colony forming units [5]: 95%
colony forming units ([5]; from 4 million): under 200,000

SMILES: O=C1CCC(O)(/C=C/c2cc(C(=O)O)ccn2)CC1 [BT-ABA-16]
Kd [3]: 4.85 µM

SMILES: O=C1CC=C(/C=C/c2ccc(C(=O)O)o2)CC1 [BT-ABA-5a]
Kd [3]: 11.7 µM

SMILES: Nc1cccc(S(=O)(=O)N2CCCN(S(=O)(=O)c3ccc4c(c3)OCCO4)CC2)c1 [DASA-58]
Treg cell differentiation [1]: promotes high level differentiation in both treated and untreated cells

SMILES: O=C(Nc1cccc(-c2nc3c([nH]2)C=CCC3)c1)c1ccc(C(=O)Nc2cccc(-c3nc4c([nH]3)C=CCC4)c2)cc1 [Compound 61610]
Kd [4]: 6.2 µM

SMILES: O=C1CCC(O)(/C=C/c2cccc(C(=O)O)n2)CC1 [BT-ABA-13]
Kd [3]: 4.65 µM

SMILES: O=C1CCC(O)(/C=C/c2cccc(C(=O)O)c2)CC1 [BT-BA-6]
Kd [3]: 163 µM

SMILES: O=C1CCC(O)(/C=C/c2ccc(C(=O)O)o2)CC1 [BT-ABA-25]
Kd [3]: 177 µM

The next lines start with results.

Kd [3]: 84.3 µM
SMILES: O=C(c1cccc(-c2nc3ccccc3[nH]2)c1)N1CCN(C(=O)c2cccc(-c3nc4ccccc4[nH]3)c2)CC1 [BT-4]

Kd [3]: 21.4 µM
SMILES: O=C(c1cccc(-c2nc3ccccc3[nH]2)n1)N1CCN(C(=O)c2cccc(-c3nc4ccccc4o3)n2)CC1 [BT-15]

BT-11 induced change in PEP and PDH activity under PS-48 [6]: abrogated by treatment with PS-48
SMILES: O=C(O)/C=C(/CCc1ccc(Cl)cc1)c1ccccc1 [PS-48, reference compound]
Treg cell differentiation [1]: abrogates the increased differentiation of Tregs generated by BT-11
BT-11-induced changes across clinical, cellular and metabolic measures [7]: effectively blocked the BT-11-induced changes
